Results published in ChEMBL document CHEMBL2040759, “Design, synthesis and anticancer activity of nitric oxide donating/chalcone hybrids” (2012).

Columns and labels:
Type in all cases: functional
UO-31 = test: Growth inhibition of human UO31 cells assessed as cell growth at 10^-5 M after 48 hrs by SRB assay; conditions: UO-31, 48 h, read-out: Activity
[1] = Growth inhibition of human […] cells assessed as cell growth at 10^-5 M after 48 hrs by SRB assay; conditions: RPMI18226, 48 h, read-out: Activity
HOP-92 = test: Growth inhibition of human HOP92 cells assessed as cell growth at 10^-5 M after 48 hrs by SRB assay; conditions: HOP-92, 48 h, read-out: Activity
LOX IMVI = test: Growth inhibition of human LOXIMVI cells assessed as cell growth at 10^-5 M after 48 hrs by SRB assay; conditions: read-out: Activity
MCF7 = test: Growth inhibition of human MCF7 cells assessed as cell growth at 10^-5 M after 48 hrs by SRB assay; conditions: MCF7, 48 h, read-out: Activity
HT-29 = test: Growth inhibition of human HT-29 cells assessed as cell growth at 10^-5 M after 48 hrs by SRB assay; conditions: HT-29, 48 h, read-out: Activity
TK-10 = test: Growth inhibition of human TK10 cells assessed as cell growth at 10^-5 M after 48 hrs by SRB assay; conditions: TK-10, 48 h, read-out: Activity
DU-145 = test: Growth inhibition of human DU145 cells assessed as cell growth at 10^-5 M after 48 hrs by SRB assay; conditions: DU-145, 48 h, read-out: Activity
HCT-15 = test: Growth inhibition of human HCT15 cells assessed as cell growth at 10^-5 M after 48 hrs by SRB assay; conditions: HCT-15, 48 h, read-out: Activity
NCI-H23 = test: Growth inhibition of human NCI-H23 cells assessed as cell growth at 10^-5 M after 48 hrs by SRB assay; conditions: NCI-H23, 48 h, read-out: Activity
UACC-257 = test: Growth inhibition of human UACC257 cells assessed as cell growth at 10^-5 M after 48 hrs by SRB assay; conditions: UACC-257, 48 h, read-out: Activity
NCI-H522 = test: Growth inhibition of human NCI-H522 cells assessed as cell growth at 10^-5 M after 48 hrs by SRB assay; conditions: NCI-H522, 48 h, read-out: Activity
CAKI-1 = test: Growth inhibition of human Caki1 cells assessed as cell growth at 10^-5 M after 48 hrs by SRB assay; conditions: CAKI-1, 48 h, read-out: Activity
786-0 = test: Growth inhibition of human 786-0 cells assessed as cell growth at 10^-5 M after 48 hrs by SRB assay; conditions: 786-0, 48 h, read-out: Activity
SW-620 = test: Growth inhibition of human SW620 cells assessed as cell growth at 10^-5 M after 48 hrs by SRB assay; conditions: SW-620, 48 h, read-out: Activity
NCI-H322M = test: Growth inhibition of human NCI-H322M cells assessed as cell growth at 10^-5 M after 48 hrs by SRB assay; conditions: read-out: Activity
CCRF-CEM = test: Growth inhibition of human CCRF-CEM cells assessed as cell growth at 10^-5 M after 48 hrs by SRB assay; conditions: read-out: Activity
SF-268 = test: Growth inhibition of human SF268 cells assessed as cell growth at 10^-5 M after 48 hrs by SRB assay; conditions: SF-268, 48 h, read-out: Activity
SK-OV-3 = test: Growth inhibition of human SKOV3 cells assessed as cell growth at 10^-5 M after 48 hrs by SRB assay; conditions: SK-OV-3, 48 h, read-out: Activity
HCC 2998 = test: Growth inhibition of human HCC2998 cells assessed as cell growth at 10^-5 M after 48 hrs by SRB assay; conditions: HCC 2998, 48 h, read-out: Activity
OVCAR-5 = test: Growth inhibition of human OVCAR5 cells assessed as cell growth at 10^-5 M after 48 hrs by SRB assay; conditions: OVCAR-5, 48 h, read-out: Activity
PC-3 = test: Growth inhibition of human PC3 cells assessed as cell growth at 10^-5 M after 48 hrs by SRB assay; conditions: PC-3, 48 h, read-out: Activity
HOP-62 = test: Growth inhibition of human HOP62 cells assessed as cell growth at 10^-5 M after 48 hrs by SRB assay; conditions: HOP-62, 48 h, read-out: Activity
COLO 205 = test: Growth inhibition of human COLO205 cells assessed as cell growth at 10^-5 M after 48 hrs by SRB assay; conditions: COLO 205, 48 h, read-out: Activity
KM12 = test: Growth inhibition of human KM12 cells assessed as cell growth at 10^-5 M after 48 hrs by SRB assay; conditions: KM12, 48 h, read-out: Activity
Malme-3M = test: Growth inhibition of human MALME-3M cells assessed as cell growth at 10^-5 M after 48 hrs by SRB assay; conditions: read-out: Activity
SK-MEL-28 = test: Growth inhibition of human SK-MEL-28 cells assessed as cell growth at 10^-5 M after 48 hrs by SRB assay; conditions: SK-MEL-28, 48 h, read-out: Activity
EKVX = test: Growth inhibition of human EKVX cells assessed as cell growth at 10^-5 M after 48 hrs by SRB assay; conditions: read-out: Activity
U-251 = test: Growth inhibition of human U251 cells assessed as cell growth at 10^-5 M after 48 hrs by SRB assay; conditions: U-251, 48 h, read-out: Activity
A549 = test: Growth inhibition of human A549/ATCC cells assessed as cell growth at 10^-5 M after 48 hrs by SRB assay; conditions: A549, 48 h, read-out: Activity
[2] = Growth inhibition of human Hs 578T cells assessed as cell growth at 10^-5 M after 48 hrs by SRB assay; conditions: read-out: Activity
NCI-H460 = test: Growth inhibition of human NCI-H460 cells assessed as cell growth at 10^-5 M after 48 hrs by SRB assay; conditions: NCI-H460, 48 h, read-out: Activity
HCT-116 = test: Growth inhibition of human HCT116 cells assessed as cell growth at 10^-5 M after 48 hrs by SRB assay; conditions: HCT-116, 48 h, read-out: Activity
NCI-H226 = test: Growth inhibition of human NCI-H226 cells assessed as cell growth at 10^-5 M after 48 hrs by SRB assay; conditions: NCI-H226, 48 h, read-out: Activity
MDA-MB-468 = test: Growth inhibition of human MDA-MB-468 cells assessed as cell growth at 10^-5 M after 48 hrs by SRB assay; conditions: MDA-MB-468, 48 h, read-out: Activity
RXF 393 = test: Growth inhibition of human RXF393 cells assessed as cell growth at 10^-5 M after 48 hrs by SRB assay; conditions: RXF 393, 48 h, read-out: Activity

Row | Structure (SMILES) | growth at 10 µM (UO-31) [%] | growth at 10 µM [1] [%] | growth at 10 µM (HOP-92) [%] | growth at 10 µM (LOX IMVI) [%] | growth at 10 µM (MCF7) [%] | growth at 10 µM (HT-29) [%] | growth at 10 µM (TK-10) [%] | growth at 10 µM (DU-145) [%] | growth at 10 µM (HCT-15) [%] | growth at 10 µM (NCI-H23) [%] | growth at 10 µM (UACC-257) [%] | growth at 10 µM (NCI-H522) [%] | growth at 10 µM (CAKI-1) [%] | growth at 10 µM (786-0) [%] | growth at 10 µM (SW-620) [%] | growth at 10 µM (NCI-H322M) [%] | growth at 10 µM (CCRF-CEM) [%] | growth at 10 µM (SF-268) [%] | growth at 10 µM (SK-OV-3) [%] | growth at 10 µM (HCC 2998) [%] | further results
1 | O=C(CO[N+](=O)[O-])Nc1ccc(C(=O)/C=C/c2ccc(Cl)cc2)cc1 | 31.9 | -14.2 | 66.8 | -60.9 | 1.64 | -23.4 | 45.7 | 79.9 | 58.9 | 5.49 | 61.2 | 38.7 | 74.9 | 75 | -61.8 | 71.5 | 20.1 | 44.9 | 89.3 | -61.3 | growth at 10 µM (OVCAR-5): 67%; growth at 10 µM (PC-3): 27.6%; growth at 10 µM (HOP-62): 94.1%; growth at 10 µM (COLO 205): 36.1%; growth at 10 µM (KM12): -60.6%; growth at 10 µM (Malme-3M): 79.1%; growth at 10 µM (SK-MEL-28): 86.8%; growth at 10 µM (EKVX): 67.9%; growth at 10 µM (U-251): 14.9%; growth at 10 µM (A549): 67.6%; growth at 10 µM [2]: 89.7%; growth at 10 µM (NCI-H460): 84.9%; growth at 10 µM (HCT-116): -49.2%; growth at 10 µM (NCI-H226): 81.7%; growth at 10 µM (MDA-MB-468): 48.7%; growth at 10 µM (RXF 393): 72.5%
2 | O=C(CO[N+](=O)[O-])Nc1ccc(C(=O)/C=C/c2ccc3c(c2)OCO3)cc1 | 77.1 | 46.8 | 77.3 | 21.5 | 26.2 | 30.1 | 111 | 96.7 | 76.7 | 58.1 | 92.9 | 97.6 | 93 | 109 | 47.8 | 108 | 70 | 82.4 | 111 | 69.2 | growth at 10 µM (OVCAR-5): 96.5%; growth at 10 µM (PC-3): 61.4%; growth at 10 µM (HOP-62): 112%; growth at 10 µM (COLO 205): 113%; growth at 10 µM (KM12): 35.9%; growth at 10 µM (Malme-3M): 116%; growth at 10 µM (SK-MEL-28): 104%; growth at 10 µM (EKVX): 99.7%; growth at 10 µM (U-251): 57.3%; growth at 10 µM (A549): 88.9%; growth at 10 µM [2]: 103%; growth at 10 µM (NCI-H460): 108%; growth at 10 µM (HCT-116): -5.9%; growth at 10 µM (NCI-H226): 107%; growth at 10 µM (MDA-MB-468): 91.9%; growth at 10 µM (RXF 393): 107%
